Data: publication PMC8842279, “Exploring Non-orthosteric Interactions with a Series of Potent and Selective A3 Antagonists” (ACS Medicinal Chemistry Letters, 2022)

Assays:
[1] = biological target: T1, hA1 (human A1 adenosine receptor) (Homo sapiens, UniProt P30542); experiment: Radioligand binding, displacement of [3H]DPCPX, transfected CHO cells; details: n = 2, read-out: hA1 % displacement of specific binding at 1 μM
T1 construct: expressed in transfected cells; host or cells: CHO
T1 sequence (P30542 1-326): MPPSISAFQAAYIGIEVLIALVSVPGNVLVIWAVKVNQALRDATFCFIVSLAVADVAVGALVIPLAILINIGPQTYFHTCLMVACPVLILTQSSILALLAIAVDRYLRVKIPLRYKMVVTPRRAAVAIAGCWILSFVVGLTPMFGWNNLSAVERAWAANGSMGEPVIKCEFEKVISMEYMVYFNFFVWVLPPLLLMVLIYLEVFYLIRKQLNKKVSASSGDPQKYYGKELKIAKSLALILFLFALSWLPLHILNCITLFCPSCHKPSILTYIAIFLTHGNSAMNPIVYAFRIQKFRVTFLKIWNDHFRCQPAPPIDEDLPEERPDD
Method: (§1) Briefly, hARs were expressed in transfected CHO (A1AR), HeLa (A2AAR and A3AR), and HEK-293 (A2BAR) cells. (^3H)-8-Cyclopentyl-1,3-dipropylxanthine ([^3H]DPCPX) for A1AR and [^3H]NECA for A3AR were used as radioligands in the assays. […] Ki values were calculated by fitting the data with nonlinear regression using Prism 2.1 software (GraphPad). […].
(§2) Pharmacology. Binding assays
(§3) The adenosinergic profile (affinity and selectivity) of the 18 novel pyrimidine derivatives (7-10) was evaluated in vitro (four human AR subtypes) using radioligand binding assays. Human adenosine receptors were expressed in transfected CHO (A1AR), HeLa (A2AAR and A3AR) and HEK-293 (A2BAR) cells. (3H)-1,3-Dipropyl-8-cyclopentylxanthine ([3H]DPCPX) for A1AR and [3H]NECA for A3AR were employed as radioligands in the assays. […]
displace specific radioligand binding. Ki values were obtained by fitting the data with nonlinear regression using Prism 2.1 software (GraphPad, San Diego, CA).
Furthermore, for A3AR, fluorescence polarization binding experiments were carried out in a 96-well plate (Corning 3650). D-PBS (Sigma D8537) was used as assay buffer. In each well, 100µg of membranes from Hela-A3 cell line previously prepared in our laboratory (Lot: A006/ 17-01-2020, […]
as standard and non-specific binding determined in presence of R-PIA 10µM (Sigma S739). 75 nM of the fluorescent ligand (CELT-228) was added, and the reaction mixture (Vt = 200µl) was incubated for 30 minutes at RT. The polarized fluorescence signal was read in an Infinite M1000 pro multiplate reader (Tecan 30063849). For validation of fluorescence polarization binding assay […] (hA 3AR Ki […]
representation of the concentration-response curves of the […].
(§4) (1 picture or pasted object on this page, not shown here)

[2] = biological target: T2, hA2A (human A2A adenosine receptor) (Homo sapiens, UniProt P29274); assay type: binding; details: human HeLa cells, n = 2
T2 construct: expressed in transfected cells; host or cells: HeLa
T2 sequence (P29274 whole entry): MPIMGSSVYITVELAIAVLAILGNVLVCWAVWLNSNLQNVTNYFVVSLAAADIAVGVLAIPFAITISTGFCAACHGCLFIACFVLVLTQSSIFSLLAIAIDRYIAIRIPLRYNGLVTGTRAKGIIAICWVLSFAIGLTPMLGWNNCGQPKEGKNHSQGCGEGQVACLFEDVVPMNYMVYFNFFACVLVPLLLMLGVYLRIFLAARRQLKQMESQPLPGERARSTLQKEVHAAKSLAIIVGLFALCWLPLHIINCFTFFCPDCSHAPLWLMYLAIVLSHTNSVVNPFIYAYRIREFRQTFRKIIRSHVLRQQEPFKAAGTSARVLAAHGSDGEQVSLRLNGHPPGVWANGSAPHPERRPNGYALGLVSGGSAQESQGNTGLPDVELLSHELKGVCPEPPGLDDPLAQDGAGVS

[3] = biological target: T3, hA2B (human A2B adenosine receptor) (Homo sapiens, UniProt P29275); experiment: Radioligand binding, displacement of [3H]DPCPX, transfected HEK-293 cells; details: human HEK-293 cells, n = 2, read-out: hA2B % displacement of specific binding at 1 μM
T3 construct: expressed in transfected cells; host or cells: HEK-293
T3 sequence (P29275 1-332): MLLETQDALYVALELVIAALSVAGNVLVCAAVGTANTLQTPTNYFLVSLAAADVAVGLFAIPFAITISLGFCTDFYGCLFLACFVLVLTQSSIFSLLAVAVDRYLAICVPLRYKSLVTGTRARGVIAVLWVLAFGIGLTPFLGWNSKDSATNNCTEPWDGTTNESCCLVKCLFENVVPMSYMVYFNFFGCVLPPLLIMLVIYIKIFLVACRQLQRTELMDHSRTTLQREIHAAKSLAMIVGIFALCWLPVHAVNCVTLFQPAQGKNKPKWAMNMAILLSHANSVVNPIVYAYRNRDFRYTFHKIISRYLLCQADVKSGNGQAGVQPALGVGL
Method: as §1, §2, §3
displace specific radioligand binding. Ki values were obtained by fitting the data with nonlinear regression using Prism 2.1 software (GraphPad, San Diego, CA). […]
as §4

**Q.** Which inhibition at 1 µM [1] does the source give for `COc1ccc(-c2cc(NC(=O)CCC(=O)NCC(=O)NC(C)(C)C)nc(-c3ccc(OC)cc3)n2)cc1` [7a] here?
**A.** 10%

**Q.** And the “hA2A % displacement of specific binding at 1 μM” value (from here on “hA2A % displacement”) [2]?
**A.** 3%

**Q.** And the inhibition at 1 µM [3]?
**A.** 4%

**Q.** And the melting point?
**A.** 176 to 178 °C

**Q.** Which results are given for `COc1ccc(-c2cc(NC(=O)CCC(=O)NCC(=O)NC3CCCCC3)nc(-c3ccc(OC)cc3)n2)cc1` [7b]?
**A.** inhibition at 1 µM [1]: 5%; hA2A % displacement of specific binding at 1 μM [2]: 9%; inhibition at 1 µM [3]: 16%; melting point: 202 to 204 °C

**Q.** What does the source list for `COc1ccc(-c2cc(NC(=O)CCC(=O)NCC(=O)NCc3ccccc3)nc(-c3ccc(OC)cc3)n2)cc1` [7c]?
**A.** inhibition at 1 µM [1]: 2%; hA2A % displacement of specific binding at 1 μM [2]: 3%; inhibition at 1 µM [3]: 3%; melting point: 184 to 186 °C

**Q.** With `COc1ccc(-c2cc(NC(=O)CCC(=O)N(C)CC(=O)NC(C)(C)C)nc(-c3ccc(OC)cc3)n2)cc1` [7d] as the molecule, how does the inhibition at 1 µM [1] read?
**A.** 32%

**Q.** And the “hA2A % displacement” value [2]?
**A.** 3%

**Q.** What about the inhibition at 1 µM [3] of the same molecule?
**A.** 10%

**Q.** What about the melting point of the same molecule?
**A.** 136 to 138 °C

**Q.** Which inhibition at 1 µM [1] does the source give for `COc1ccc(-c2cc(NC(=O)CCC(=O)N(C)CC(=O)NC3CCCCC3)nc(-c3ccc(OC)cc3)n2)cc1` [7e] here?
**A.** 9%

**Q.** And the “hA2A % displacement” value [2]?
**A.** 11%

**Q.** And the inhibition at 1 µM [3]?
**A.** 1%

**Q.** What does the source list for `COc1ccc(-c2cc(NC(=O)CCC(=O)N(C)CC(=O)NCc3ccccc3)nc(-c3ccc(OC)cc3)n2)cc1` [7f]?
**A.** inhibition at 1 µM [1]: 32%; hA2A % displacement of specific binding at 1 μM [2]: 20%; inhibition at 1 µM [3]: 2%

**Q.** Which inhibition at 1 µM [1] does the source give for `COc1ccc(-c2cc(NC(=O)COCC(=O)NCC(=O)NC(C)(C)C)nc(-c3ccc(OC)cc3)n2)cc1` [8a] here?
**A.** 7%

**Q.** What about the “hA2A % displacement” value [2] of the same molecule?
**A.** 9%

**Q.** What about the inhibition at 1 µM [3] of the same molecule?
**A.** 3%

**Q.** Which inhibition at 1 µM [1] does the source give for `COc1ccc(-c2cc(NC(=O)COCC(=O)NCC(=O)NC3CCCCC3)nc(-c3ccc(OC)cc3)n2)cc1` [8b] here?
**A.** 6%

**Q.** What about the “hA2A % displacement” value [2] of the same molecule?
**A.** 9%

**Q.** What about the inhibition at 1 µM [3] of the same molecule?
**A.** 3%

**Q.** And the melting point?
**A.** 113 to 115 °C

**Q.** Which results are given for `COc1ccc(-c2cc(NC(=O)COCC(=O)NCC(=O)NCc3ccccc3)nc(-c3ccc(OC)cc3)n2)cc1` [8c]?
**A.** inhibition at 1 µM [1]: 9%; hA2A % displacement of specific binding at 1 μM [2]: 1%; inhibition at 1 µM [3]: 2%; melting point: 201 to 203 °C

**Q.** Which inhibition at 1 µM [1] does the source give for `COc1ccc(-c2cc(NC(=O)COCC(=O)N(C)CC(=O)NC(C)(C)C)nc(-c3ccc(OC)cc3)n2)cc1` [8d] here?
**A.** 20%

**Q.** What about the “hA2A % displacement” value [2] of the same molecule?
**A.** 4%

**Q.** What about the inhibition at 1 µM [3] of the same molecule?
**A.** 2%

**Q.** And the melting point?
**A.** 115 to 117 °C

**Q.** With `COc1ccc(-c2cc(NC(=O)COCC(=O)N(C)CC(=O)NC3CCCCC3)nc(-c3ccc(OC)cc3)n2)cc1` [8e] as the molecule, how does the inhibition at 1 µM [1] read?
**A.** 13%

**Q.** What about the “hA2A % displacement” value [2] of the same molecule?
**A.** 8%

**Q.** What about the inhibition at 1 µM [3] of the same molecule?
**A.** 2%

**Q.** What about the melting point of the same molecule?
**A.** 186 to 188 °C

**Q.** Which inhibition at 1 µM [1] does the source give for `COc1ccc(-c2cc(NC(=O)COCC(=O)N(C)CC(=O)NCc3ccccc3)nc(-c3ccc(OC)cc3)n2)cc1` [8f] here?
**A.** 6%

**Q.** What about the “hA2A % displacement” value [2] of the same molecule?
**A.** 1%

**Q.** And the inhibition at 1 µM [3]?
**A.** 2%

**Q.** What about the melting point of the same molecule?
**A.** 166 to 168 °C

**Q.** With `COc1ccc(-c2cc(NC(=O)CCC(=O)N3CCN(CC(=O)NC(C)(C)C)CC3)nc(-c3ccc(OC)cc3)n2)cc1` [9a] as the molecule, how does the inhibition at 1 µM [1] read?
**A.** 19%

**Q.** What about the “hA2A % displacement” value [2] of the same molecule?
**A.** 4%

**Q.** What about the inhibition at 1 µM [3] of the same molecule?
**A.** 1%

**Q.** What about the melting point of the same molecule?
**A.** 203 to 205 °C

**Q.** Which results are given for `COc1ccc(-c2cc(NC(=O)CCC(=O)N3CCN(CC(=O)NC4CCCCC4)CC3)nc(-c3ccc(OC)cc3)n2)cc1` [9b]?
**A.** inhibition at 1 µM [1]: 9%; hA2A % displacement of specific binding at 1 μM [2]: 1%; inhibition at 1 µM [3]: 1%

**Q.** With `COc1ccc(-c2cc(NC(=O)CCC(=O)N3CCN(CC(=O)NCc4ccccc4)CC3)nc(-c3ccc(OC)cc3)n2)cc1` [9c] as the molecule, how does the inhibition at 1 µM [1] read?
**A.** 6%

**Q.** What about the “hA2A % displacement” value [2] of the same molecule?
**A.** 9%

**Q.** And the inhibition at 1 µM [3]?
**A.** 2%

**Q.** And the melting point?
**A.** 194 to 195 °C

**Q.** What does the source list for `COc1ccc(-c2cc(NC(=O)COCC(=O)N3CCN(CC(=O)NC(C)(C)C)CC3)nc(-c3ccc(OC)cc3)n2)cc1` [10a]?
**A.** inhibition at 1 µM [1]: 9%; hA2A % displacement of specific binding at 1 μM [2]: 36%; inhibition at 1 µM [3]: 3%; melting point: 106 to 108 °C

**Q.** Which results are given for `COc1ccc(-c2cc(NC(=O)COCC(=O)N3CCN(CC(=O)NC4CCCCC4)CC3)nc(-c3ccc(OC)cc3)n2)cc1` [10b]?
**A.** inhibition at 1 µM [1]: 11%; hA2A % displacement of specific binding at 1 μM [2]: 3%; inhibition at 1 µM [3]: 2%

**Q.** Which results are given for `COc1ccc(-c2cc(NC(=O)COCC(=O)N3CCN(CC(=O)NCc4ccccc4)CC3)nc(-c3ccc(OC)cc3)n2)cc1` [10c]?
**A.** inhibition at 1 µM [1]: 2%; hA2A % displacement of specific binding at 1 μM [2]: 7%; inhibition at 1 µM [3]: 1%

**Q.** Which results are given for `COc1ccc(-c2cc(NC(C)=O)nc(-c3ccc(OC)cc3)n2)cc1` [ISVY-130, N-(2,6-bis(4-methoxyphenyl)pyrimidin-4-yl)acetamide, reference compound]?
**A.** inhibition at 1 µM [1]: 1%; hA2A % displacement of specific binding at 1 μM [2]: 10%; inhibition at 1 µM [3]: 4%
